Laboratory results published in patent US20060148858A1, “1, 2-Azole derivatives with hypoglycemic and hypolipidemic activity” (priority 2002, published 2006).
Like-named read-outs stand apart in the source and are kept apart here.

Key:
KKAY mice = assay: Hypoglycemic and hypolipidemic actions in mice (Test Example 1); type: in vivo; details: Mus musculus, po, 96 h, 0.005% in powdery diet, four days, non-treated group taken as 100%
Method in brief: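 KKAY mice (9 to 12 weeks old, 5 per group) were fed diet containing 0.005% test compound ad libitum for four days. Plasma glucose and triglycerides from orbital venous blood were measured enzymatically, reported as % decrease relative to untreated group (100%).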

PPARδ-RXRα heterodimer = molecular target: T1, PPARδ-RXRα heterodimer (Homo sapiens, UniProt Q03181); assay: PPARδ-RXRα heterodimer ligand activity, luciferase reporter in COS-1 transformant (Test Example 4); type: cell-based; details: COS-1 transformant (hPPARδ, hRXRα, reporter), 36-48 hours, concentration for 50% of the maximum fold induction
T1 construct: expressed in transfected cells; host or cells: COS-1
T1 sequence (Q03181 1-441): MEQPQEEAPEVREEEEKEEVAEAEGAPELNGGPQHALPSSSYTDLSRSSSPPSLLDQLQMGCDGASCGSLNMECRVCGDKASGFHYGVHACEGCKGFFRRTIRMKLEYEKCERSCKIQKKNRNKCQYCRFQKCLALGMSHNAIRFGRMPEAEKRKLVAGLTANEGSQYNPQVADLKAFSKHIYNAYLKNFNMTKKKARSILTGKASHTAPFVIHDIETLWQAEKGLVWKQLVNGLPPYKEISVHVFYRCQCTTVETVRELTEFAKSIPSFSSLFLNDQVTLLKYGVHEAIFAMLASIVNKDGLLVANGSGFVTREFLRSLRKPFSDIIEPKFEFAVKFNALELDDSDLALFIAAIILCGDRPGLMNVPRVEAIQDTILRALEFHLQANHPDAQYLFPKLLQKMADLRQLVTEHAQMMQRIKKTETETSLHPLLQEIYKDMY
T1 sequence (P19793 1-462 partner): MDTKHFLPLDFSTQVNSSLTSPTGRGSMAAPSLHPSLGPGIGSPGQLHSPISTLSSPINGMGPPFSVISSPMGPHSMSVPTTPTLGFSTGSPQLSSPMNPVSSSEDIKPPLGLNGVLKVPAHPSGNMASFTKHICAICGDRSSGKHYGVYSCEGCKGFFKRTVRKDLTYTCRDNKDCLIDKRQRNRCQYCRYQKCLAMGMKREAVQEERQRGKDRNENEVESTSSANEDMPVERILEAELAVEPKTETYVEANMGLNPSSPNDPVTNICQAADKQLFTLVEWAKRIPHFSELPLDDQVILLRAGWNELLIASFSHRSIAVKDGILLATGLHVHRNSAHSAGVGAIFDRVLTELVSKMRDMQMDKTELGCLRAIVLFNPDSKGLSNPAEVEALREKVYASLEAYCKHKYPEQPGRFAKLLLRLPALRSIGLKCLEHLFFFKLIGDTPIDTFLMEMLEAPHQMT
Method in brief: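 COS-1 cells transiently co-transfected with human PPARδ, human RXRα, PPRE-luciferase reporter and pRL-tk, then exposed to compound 36-48 h at 37 °C in DMEM with 0.1% fatty acid-free BSA. Luciferase read as fold induction over untreated; EC50 at 50% of maximal fold induction.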

[1] = rate of decrease in blood glucose level, read-out: Hypoglycemic action (%)
[2] = rate of decrease in blood triglyceride level, read-out: Hypolipidemic action (%)

| SMILES | inhibition in vivo at 0.005 % in diet (KKAY mice; [1]) [%] | inhibition in vivo at 0.005 % in diet (KKAY mice; [2]) [%] | EC50 (PPARδ-RXRα heterodimer) [nM] |
| --- | --- | --- | --- |
| COc1cccc(CC(=O)O)c1OCCCc1cn(-c2ccc(C(F)(F)F)nn2)nc1C(C)C [Example 274, [2-(3-{3-isopropyl-1-[6-(trifluoromethyl)pyridazin-3-yl]-1H-pyrazol-4-yl}propoxy)-3-methoxyphenyl]acetic acid] | 50 | 60 | 320 |
| COc1cccc(CC(=O)O)c1OCCCc1cn(-c2ccc(Cl)cn2)nc1C(C)C [Example 311, (2-{3-[1-(5-chloro-2-pyridinyl)-3-isopropyl-1H-pyrazol-4-yl]propoxy}-3-methoxyphenyl)acetic acid] | 52 | 29 | 280 |
| CCC(CC)c1nn(-c2ccc(C(F)(F)F)nn2)cc1CCCOc1c(C)cccc1CC(=O)O [Example 340, [2-(3-{3-(1-ethylpropyl)-1-[6-(trifluoromethyl)pyridazin-3-yl]-1H-pyrazol-4-yl}propoxy)-3-methylphenyl]acetic acid] | 49 | 55 | 45 |
| CCC(CC)c1nn(-c2ccc(Br)cn2)cc1CCCOc1c(CC(=O)O)cccc1OC [Example 351, (2-{3-[1-(5-bromo-2-pyridinyl)-3-(1-ethylpropyl)-1H-pyrazol-4-yl]propoxy}-3-methoxyphenyl)acetic acid] | 51 | 49 | 72 |
